Results taken from patent US9695155B2, “Herbicidal substituted pyrimidinyloxy benzene compounds” (E. I. DU PONT DE NEMOURS AND COMPANY, priority 2013, dated 2017).

What was measured:
large (Lg) crabgrass [1] = assay: Test A preemergence; assay type: in vivo, Digitaria sanguinalis
Method in brief: (§1)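 Injury scores run from 0, no effect, to 100, complete control, judged by eye against untreated plants roughly 10 days after treatment. Chemicals carried a surfactant in a non-phytotoxic solvent and went onto loam–sand soil preemergence or onto one- to two-leaf seedlings postemergence.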

giant foxtail [2] = assay: Test A preemergence; assay type: in vivo, Setaria faberii
Method in brief: as §1

pigweed [3] = assay: Test A preemergence; assay type: in vivo, Amaranthus retroflexus
Method in brief: as §1

velvetleaf [4] = assay: Test A preemergence; assay type: in vivo, Abutilon theophrasti
Method in brief: as §1

large (Lg) crabgrass [5] = assay: Test A postemergence; assay type: in vivo, Digitaria sanguinalis; conditions: Digitaria sanguinalis, post-emergence, 240 h, read-out: Plant response rating, Crabgrass, Large
Method in brief: as §1

giant foxtail [6] = assay: Test A postemergence; assay type: in vivo, Setaria faberii; conditions: Setaria faberi, post-emergence, 240 h, read-out: Plant response rating, Foxtail, Giant
Method in brief: as §1

pigweed [7] = assay: Test A postemergence; assay type: in vivo, Amaranthus retroflexus; conditions: Amaranthus retroflexus, post-emergence, read-out: Plant response rating, Pigweed
Method in brief: as §1

velvetleaf [8] = assay: Test A postemergence; assay type: in vivo, Abutilon theophrasti; conditions: Abutilon theophrasti, post-emergence, 240 h, read-out: Plant response rating, Velvetleaf
Method in brief: as §1

wheat, winter = assay: Test C postemergence; assay type: in vivo, Triticum aestivum
Method in brief: (§2)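 Rated visually on 0–100 (100 = complete control) after 13–15 days under glass. Treatments went onto freshly seeded loam/sand soil or onto emerged plants at the 1- to 4-leaf stage, using a surfactant-containing solvent formulation.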

giant foxtail [9] = assay: Test C postemergence; assay type: in vivo, Setaria faberii; conditions: Setaria faberi, post-emergence
Method in brief: as §2

ragweed = assay: Test C postemergence; assay type: in vivo, Ambrosia elatior
Method in brief: as §2

soybean = assay: Test C postemergence; assay type: in vivo, Glycine max
Method in brief: as §2

wild oat = assay: Test C postemergence; assay type: in vivo, Avena fatua; conditions: Avena fatua, post-emergence
Method in brief: as §2

velvetleaf [10] = assay: Test C postemergence; assay type: in vivo, Abutilon theophrasti
Method in brief: as §2

chickweed = assay: Test C postemergence; assay type: in vivo, Stellaria media; conditions: Stellaria media, post-emergence
Method in brief: as §2

[11] = 125 g ai/ha, 0 to 100 scale, 0 no effect, 100 complete control
[12] = 500 g ai/ha, 0 to 100 scale where 0 is no effect and 100 is complete control
[13] = 31 g ai/ha, postemergence, visual rating, scale 0 to 100 (0 no effect, 100 complete control), 13 to 15 days

For `N#Cc1cccc(Oc2ncc(Cl)cn2)c1-n1cc(OCC(F)(F)F)cn1` [Compound 274, 3-[(5-chloro-2-pyrimidinyl)oxy]-2-[4-(2,2,2-trifluoroethoxy)-1H-pyrazol-1-yl]benzonitrile], the “Crabgrass, Large plant response rating (0 to 100 scale)” value (large (Lg) crabgrass [1]; 125 g ai/ha) was 100, the pest or weed control at 500 g/ha (large (Lg) crabgrass [1]; Digitaria sanguinalis, pre-emergence, 240 h, 500 g ai/ha, 0 to 100 scale where 0 is no effect and 100 is complete control, read-out: Crabgrass, Large plant response rating) was 100% and the “Foxtail, Giant plant response rating (0 to 100 scale)” value (giant foxtail [2]; 125 g ai/ha) was 100. For the same compound, the pest or weed control at 500 g/ha (giant foxtail [2]; Setaria faberi, pre-emergence, 240 h, 500 g ai/ha, 0 to 100 scale where 0 is no effect and 100 is complete control, read-out: Foxtail, Giant plant response rating) was 100%, the “Pigweed plant response rating (0 to 100 scale)” value (pigweed [3]; 125 g ai/ha) was 100 and the pest or weed control at 500 g/ha (pigweed [3]; Amaranthus retroflexus, pre-emergence, 240 h, 500 g ai/ha, 0 to 100 scale where 0 is no effect and 100 is complete control, read-out: Pigweed plant response rating) was 100%. The “Velvetleaf plant response rating (0 to 100 scale)” value (velvetleaf [4]; 125 g ai/ha) was 100, the pest or weed control at 500 g/ha (velvetleaf [4]; Abutilon theophrasti, pre-emergence, 240 h, 500 g ai/ha, 0 to 100 scale where 0 is no effect and 100 is complete control, read-out: Velvetleaf plant response rating) was 100% and the pest or weed control at 125 g/ha (large (Lg) crabgrass [5]; [11]) was 90%. For the same compound, the pest or weed control at 500 g/ha (large (Lg) crabgrass [5]; [12]) was 90%, the pest or weed control at 125 g/ha (giant foxtail [6]; [11]) was 90% and the pest or weed control at 500 g/ha (giant foxtail [6]; [12]) was 90%. The pest or weed control at 125 g/ha (pigweed [7]; [11]) was 100%, the pest or weed control at 500 g/ha (pigweed [7]; [12]) was 100% and the pest or weed control at 125 g/ha (velvetleaf [8]; [11]) was 100%. For the same compound, the pest or weed control at 500 g/ha (velvetleaf [8]; [12]) was 100%, the “Wheat plant response rating” value (wheat, winter; [13]) was 5 and the plant injury at 16 g/ha (wheat, winter; Triticum aestivum, post-emergence, 16 g ai/ha, postemergence, 0 is no effect, 100 is complete control, read-out: Plant response rating (0 to 100), Wheat) was 5%. It also gave a plant injury at 125 g/ha (wheat, winter; Triticum aestivum, post-emergence, 125 g ai/ha, postemergence, visual rating, scale 0 to 100 (0 no effect, 100 complete control), read-out: Plant response rating, Wheat) of 15%, a plant injury at 62 g/ha (wheat, winter; Triticum aestivum, post-emergence, Postemergence, 62 g ai/ha, scale 0 to 100 (0 no effect, 100 complete control), 13 to 15 days, read-out: Plant response rating, Wheat) of 5% and a pest or weed control at 16 g/ha (giant foxtail [9]; 16 g ai/ha, postemergence, 0 is no effect, 100 is complete control, read-out: Plant response rating (0 to 100), Foxtail, Giant) of 5%. The pest or weed control at 31 g/ha (giant foxtail [9]; 31 g ai/ha, postemergence, visual rating, scale 0 to 100 (0 no effect, 100 complete control), 13 to 15 days, read-out: Foxtail, Giant plant response rating) was 10%, the pest or weed control at 125 g/ha (giant foxtail [9]; 125 g ai/ha, postemergence, visual rating, scale 0 to 100 (0 no effect, 100 complete control), read-out: Plant response rating, Foxtail, Giant) was 60% and the pest or weed control at 62 g/ha (giant foxtail [9]; Postemergence, 62 g ai/ha, scale 0 to 100 (0 no effect, 100 complete control), 13 to 15 days, read-out: Plant response rating, Foxtail, Giant) was 10%. For the same compound, the “Ragweed plant response rating” value (ragweed; [13]) was 60, the pest or weed control at 16 g/ha (ragweed; Ambrosia artemisiifolia, post-emergence, 16 g ai/ha, postemergence, 0 is no effect, 100 is complete control, read-out: Plant response rating (0 to 100), Ragweed) was 50% and the pest or weed control at 125 g/ha (ragweed; Ambrosia artemisiifolia, post-emergence, 125 g ai/ha, postemergence, visual rating, scale 0 to 100 (0 no effect, 100 complete control), read-out: Plant response rating, Ragweed) was 75%. For the same compound, the pest or weed control at 62 g/ha (ragweed; Ambrosia artemisiifolia, post-emergence, Postemergence, 62 g ai/ha, scale 0 to 100 (0 no effect, 100 complete control), 13 to 15 days, read-out: Plant response rating, Ragweed) was 40%, the “Soybean plant response rating” value (soybean; [13]) was 70 and the Soybean plant response rating (crop injury, 0-100 scale) at 16 g/ha (soybean; Glycine max, post-emergence, 16 g ai/ha, postemergence, 0 is no effect, 100 is complete control) was 45%. For the same compound, the Soybean plant response rating (crop injury, 0-100 scale) at 125 g/ha (soybean; Glycine max, post-emergence, 125 g ai/ha, postemergence, visual rating, scale 0 to 100 (0 no effect, 100 complete control), read-out: Plant response rating, Soybean) was 98%, the Soybean plant response rating (crop injury, 0-100 scale) at 62 g/ha (soybean; Glycine max, post-emergence, Postemergence, 62 g ai/ha, scale 0 to 100 (0 no effect, 100 complete control), 13 to 15 days) was 90% and the pest or weed control at 16 g/ha (wild oat; 16 g ai/ha, postemergence, 0 is no effect, 100 is complete control, read-out: Plant response rating (0 to 100), Oat, Wild) was 30%. The pest or weed control at 125 g/ha (wild oat; 125 g ai/ha, postemergence, visual rating, scale 0 to 100 (0 no effect, 100 complete control), read-out: Plant response rating, Oat, Wild) was 30%, the pest or weed control at 62 g/ha (wild oat; Postemergence, 62 g ai/ha, scale 0 to 100 (0 no effect, 100 complete control), 13 to 15 days, read-out: Plant response rating, Oat, Wild) was 35% and the “Velvetleaf plant response rating” value (velvetleaf [10]; [13]) was 50. It also gave a pest or weed control at 16 g/ha (velvetleaf [10]; Abutilon theophrasti, post-emergence, 16 g ai/ha, postemergence, 0 is no effect, 100 is complete control, read-out: Plant response rating (0 to 100), Velvetleaf) of 30%, a pest or weed control at 125 g/ha (velvetleaf [10]; Abutilon theophrasti, post-emergence, 125 g ai/ha, postemergence, visual rating, scale 0 to 100 (0 no effect, 100 complete control), read-out: Plant response rating, Velvetleaf) of 75% and a pest or weed control at 62 g/ha (velvetleaf [10]; Abutilon theophrasti, post-emergence, Postemergence, 62 g ai/ha, scale 0 to 100 (0 no effect, 100 complete control), 13 to 15 days, read-out: Plant response rating, Velvetleaf) of 65%. The pest or weed control at 16 g/ha (chickweed; 16 g ai/ha, postemergence, 0 is no effect, 100 is complete control, read-out: Plant response rating (0 to 100), Chickweed) was 70%, the pest or weed control at 31 g/ha (chickweed; 31 g ai/ha, postemergence, visual rating, scale 0 to 100 (0 no effect, 100 complete control), 13 to 15 days, read-out: Chickweed plant response rating) was 70% and the pest or weed control at 125 g/ha (chickweed; 125 g ai/ha, postemergence, visual rating, scale 0 to 100 (0 no effect, 100 complete control), read-out: Plant response rating, Chickweed) was 98%. For the same compound, the pest or weed control at 62 g/ha (chickweed; Postemergence, 62 g ai/ha, scale 0 to 100 (0 no effect, 100 complete control), 13 to 15 days, read-out: Plant response rating, Chickweed) was 90%.
